Test system: human prostate cancer PC-3 cells
Test: Cytotoxic profile by MTT assay on human prostate cancer PC-3 cell line
Assay type: cell-based
Conditions: incubation time=48 h

N.N.[Cl][Pt][Cl] [Cisplatin]
IC50: 14 µM

CC(=O)Oc1ccccc1C(=O)O [Aspirin]
IC50 (Homo sapiens): > 100 µM
